Among the data in US9226929B2, “Pharmaceutically active disubstituted triazine derivatives” (Bayer Intellectual Property GMBH, priority 2011, dated 2016) are IC50 and Kd values, retold here.

As a reminder, the IC50 is the concentration that gives 50% inhibition.

One assay relates to Hela cells. Kind of assay: Cell Viability Assay, Hela cells. It is filed as cell-based. As to conditions: Homo sapiens, 72 h, Cell Titer Glo, read-out: Cell Viability - Hela cells (activity range), IC50. As for the experimental part: (§1) 3.4 Cell Viability Assays
(§2) Hela- or MDAMB468-Cells were maintained in RPMI 1640 or McCoy's 5A cell culture medium+glutamine (PAN Biotech GmbH, Aidenbach, Germany; order no. PO4-22100; PO4-05500) supplemented with 10% fetal calf serum “Gold” (PAA Laboratories GmbH, Pasching, Austria; order no. A15-151) and grown at 37° C., 5% CO2. For the cell viability assay, cells were seeded with a density of 400 (Hela cells, DSMZ Braunschweig order no. ACC57) or 800 (MDAMB468 cells, ATCC order no. HTB-132) per well in 25 μL in 384-well plates (Greiner Bio-One, Frickenhausen, Germany; order no. 781080). After overnight incubation at 37° C./5% CO2, 25 nL or 75 nL compound were added to each sample well by using BIOMEK FXP Laboratory Automation Workstation (Beckman Coulter, USA). Wells with cells and 0.1% or 0,3% DMSO in culture medium were used as positive controls, wells with cells and 10 μM staurosporine in culture medium were used as negative controls. The cells were incubated with the compounds for 72 h at 37° C./5% CO2. For measurement of cell viability 25 μL Cell Titer Glo reagent (Promega, Madison, USA; order no. G7573), 1:2 diluted with cell culture medium, was added to each well. The 384we11-plates were placed for 2 min on a orbital microplate shaker and incubated for further 10 min at room temperature to stabilize the luminescence signal.
(§3) Luminescence was measured by Envision Plate Reader (Perkin Elmer, USA). IC50 values were calculated with the software Excel Fit (IDBS, Guildford, UK) from 3-fold dilution series comprising at least 8 concentrations in duplicates.

The next assay has as its target T1, CDK9/Cyclin T1 (Homo sapiens, UniProt P50750).
T1 construct: His; purchased Invitrogen
Kind of assay: LanthaScreen Eu Kinase Binding Assay, CDK9/Cyclin T1. As to conditions: tracer 236, read-out: CDK9/Cyclin T1 (activity range), Kd. The method, boiled down:
(§4)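 TR-FRET displacement of an Alexa Fluor 647 active-site tracer, detected with a Eu anti-GST antibody, over an 8-point 1:3 compound series. Tracer was set at its Kd (30 nM for CDK2/Cyclin A, CDK7 and CDK9/Cyclin T1; 35 nM for CDK9/Cyclin K). Read after 1 h at room temperature; Kd was fitted from sigmoidal curves.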
(Time-resolved FRET reads energy transfer from a long-lived donor to a nearby acceptor.)

The target in a further assay is T2, CDK2/CyclinA (Homo sapiens, UniProt P24941).
T2 construct: GST; purchased Proqinase
Kind of assay: LanthaScreen Eu Kinase Binding Assay, CDK2. As to conditions: tracer 236, read-out: CDK2 (activity range), Kd. The protocol:
This protocol describes how the LanthaScreen Eu Kinase Binding Assay was performed to determine dissociation constants (Kd) of compounds of general formula (I) and CDK/Cyclin complexes. The principle behind this assay is based upon the binding and displacement of an Alexa Fluor 647-labeled tracer, which binds to the active site of kinases. Binding of the tracer to the kinase is detected using a Eu-labeled antibody. Simultaneous binding of both the tracer and antibody to the kinase gives rise to a FRET-signal. Binding of an inhibitor to the kinase competes for binding with the tracer, resulting in a loss of FRET.
The compounds of general formula (I) summarized in Table 1 were diluted from a 10 mM DMSO stock solution 1:10 in a total volume of 15 μL DMSO. This compound predilution was then serial diluted 1:3 over 8 steps in DMSO and briefly spun down. Each compound solution was now diluted 1:33.33 in kinase buffer (HEPES: 20 mM, pH: 8.0; MgCl2: 10 mM; DTT: 1 mM; Brij-35: 0,01%), mixed thoroughly and spun down. For every sample, 5 μL of the diluted compound were mixed with 5 μL tracer working solution (e.g. 60 nM tracer 236 in kinase buffer for CDK2/Cyclin A) and 5 μL CDK/Cyclin/Anti-GST-AB-working solution (e.g. 15 nM CDK2/Cyclin A, 1:250 dilution of Anti-GST-AB in kinase buffer) in a well of a small volume 384 well plate (Corning Incorporated, Corning, N.Y., USA; order no. 3673). The tracer concentration was adjusted to its dissociation constant (Kd) for the CDK/Cyclin, which was 30 nM for CDK2/Cyclin A, CDK7/Cyclin H and CDK9/Cyclin T1, 20 nM for CDK8/Cyclin C, and 35 nM for CDK9/Cyclin K. For negative controls, in each well 5 μL of DMSO working solution (3% DMSO diluted in kinase buffer) was mixed with 5 μL Anti-GST-AB working solution (e.g. 1:250 dilution of Anti-GST-AB in kinase buffer for CDK2/Cyclin A) and 5 μL Tracer working solution (e.g. 60 nM Tracer 236 in kinase buffer for CDK2/Cyclin A). For positive controls, in each well 5 μL of DMSO working solution (3% DMSO diluted in kinase buffer) was mixed with 5 μL CDK/Cyclin/Anti-GST-AB-working solution: (e.g. 15 nM CDK2/Cyclin A, 1:250 dilution of Anti-GST-AB in kinase buffer) and 5 μL Tracer working solution (e.g. 60 nM Tracer 236 in kinase buffer for CDK2/Cyclin A). Positive and negative controls were calculated from at least 8 different sample wells. The 384 well plates were mixed in a Teleshaker plate mixer (Beckman Coulter, Brea, Calif., USA) at 2000 rpm for 40 sec, and incubated for 1 h at room temperature before reading. The FRET signal was measured at 340 nm excitation, 665 nm and 615 nm emission (for the kinase tracer and LanthaScreen Eu-AB, respectively) with an Envision spectrophotometer (Perkin Elmer, Waltham, Mass., USA) with […]. Kd values were determined from the sigmoidal dose response curves with the software Quattro Workflow (Quattro GmbH, Munich, Germany).

For another assay, the system named is MDAMB468 cells. Kind of assay: Cell Viability Assay, MDAMB468 cells. It is filed as cell-based. As to conditions: Homo sapiens, MDA-MB-468; 72 h, Cell Titer Glo; read-out: Cell Viability - MDAMB468 cells (activity range), IC50. As for the experimental part:
as §1, §2, §3
In general terms: ATP-based viability assays read luminescence as a measure of living cells.

Another assay has as its target T3, CDK9/Cyclin K (Homo sapiens, UniProt P50750).
T3 construct: His; purchased Invitrogen
Kind of assay: LanthaScreen Eu Kinase Binding Assay, CDK9/Cyclin K. As to conditions: tracer 236, read-out: CDK9/Cyclin K (activity range), Kd. In a few lines: as §4

The target in the next assay is T4, CDK7/CyclinH/MAT1 (Homo sapiens, UniProt P50613).
T4 construct: His; purchased Carna Biosciences
Kind of assay: LanthaScreen Eu Kinase Binding Assay, CDK7. As to conditions: tracer 236, read-out: CDK7 (activity range), Kd. In a few lines: as §4

T3 sequence (P50750 whole entry): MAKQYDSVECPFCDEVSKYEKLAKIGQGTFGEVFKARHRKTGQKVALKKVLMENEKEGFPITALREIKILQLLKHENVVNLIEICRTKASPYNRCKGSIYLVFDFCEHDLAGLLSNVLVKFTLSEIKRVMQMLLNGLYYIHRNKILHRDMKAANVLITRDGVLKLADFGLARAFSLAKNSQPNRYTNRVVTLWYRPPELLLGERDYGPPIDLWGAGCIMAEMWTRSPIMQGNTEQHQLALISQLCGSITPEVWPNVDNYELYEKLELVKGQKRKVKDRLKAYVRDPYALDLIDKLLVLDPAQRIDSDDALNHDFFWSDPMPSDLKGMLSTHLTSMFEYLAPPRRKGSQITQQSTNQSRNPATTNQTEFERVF
T3 sequence (O75909 1-357 isoform O75909-1 partner): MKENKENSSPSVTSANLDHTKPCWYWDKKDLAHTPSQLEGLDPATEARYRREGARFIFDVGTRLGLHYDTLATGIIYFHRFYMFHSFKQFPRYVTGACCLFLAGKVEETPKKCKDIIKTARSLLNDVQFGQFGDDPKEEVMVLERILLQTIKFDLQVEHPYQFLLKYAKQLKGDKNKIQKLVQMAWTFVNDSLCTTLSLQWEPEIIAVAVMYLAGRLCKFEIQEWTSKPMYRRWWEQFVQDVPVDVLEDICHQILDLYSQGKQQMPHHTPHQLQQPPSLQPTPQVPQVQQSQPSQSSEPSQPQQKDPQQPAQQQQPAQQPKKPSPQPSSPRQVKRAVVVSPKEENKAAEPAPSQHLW
T1 sequence (P50750 whole entry): as the sequence (P50750 whole entry) above
T1 sequence (O60563 whole entry partner): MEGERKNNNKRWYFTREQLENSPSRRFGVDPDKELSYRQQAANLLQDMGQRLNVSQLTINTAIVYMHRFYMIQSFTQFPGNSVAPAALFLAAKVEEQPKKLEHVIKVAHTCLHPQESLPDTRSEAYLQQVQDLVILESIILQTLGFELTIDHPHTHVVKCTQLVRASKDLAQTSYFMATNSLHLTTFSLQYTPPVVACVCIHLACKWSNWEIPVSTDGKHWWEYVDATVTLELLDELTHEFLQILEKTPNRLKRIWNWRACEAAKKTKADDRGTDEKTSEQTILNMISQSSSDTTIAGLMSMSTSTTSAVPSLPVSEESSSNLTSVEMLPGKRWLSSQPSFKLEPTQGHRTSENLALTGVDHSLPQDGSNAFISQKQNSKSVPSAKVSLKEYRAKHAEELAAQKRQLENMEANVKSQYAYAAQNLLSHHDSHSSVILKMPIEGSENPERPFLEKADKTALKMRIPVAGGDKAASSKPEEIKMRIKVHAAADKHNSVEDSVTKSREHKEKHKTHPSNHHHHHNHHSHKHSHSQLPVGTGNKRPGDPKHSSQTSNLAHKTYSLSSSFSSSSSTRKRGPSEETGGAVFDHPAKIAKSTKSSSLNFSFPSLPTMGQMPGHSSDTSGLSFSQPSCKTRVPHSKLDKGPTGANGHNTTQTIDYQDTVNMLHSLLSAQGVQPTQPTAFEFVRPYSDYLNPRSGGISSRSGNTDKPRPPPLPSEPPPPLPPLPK
T4 sequence (P50613 whole entry): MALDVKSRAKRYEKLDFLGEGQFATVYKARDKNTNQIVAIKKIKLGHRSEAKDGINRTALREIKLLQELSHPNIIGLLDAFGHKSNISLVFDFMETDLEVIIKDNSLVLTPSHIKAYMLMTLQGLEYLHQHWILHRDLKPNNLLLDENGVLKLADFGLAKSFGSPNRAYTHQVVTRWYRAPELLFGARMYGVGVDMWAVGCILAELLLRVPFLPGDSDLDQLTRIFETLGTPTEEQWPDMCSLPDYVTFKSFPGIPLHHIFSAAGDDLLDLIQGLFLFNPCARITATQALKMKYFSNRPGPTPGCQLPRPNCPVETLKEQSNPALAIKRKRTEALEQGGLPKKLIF
T4 sequence (P51946 whole entry partner): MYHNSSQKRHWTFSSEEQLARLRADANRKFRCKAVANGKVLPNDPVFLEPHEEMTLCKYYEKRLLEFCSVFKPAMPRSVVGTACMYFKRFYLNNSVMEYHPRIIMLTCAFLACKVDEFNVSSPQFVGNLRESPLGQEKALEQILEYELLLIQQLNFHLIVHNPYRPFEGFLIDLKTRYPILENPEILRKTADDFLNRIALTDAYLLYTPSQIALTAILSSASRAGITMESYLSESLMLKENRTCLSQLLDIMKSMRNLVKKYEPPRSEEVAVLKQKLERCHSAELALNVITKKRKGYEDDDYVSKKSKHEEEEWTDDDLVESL
T4 sequence (P51948 whole entry partner): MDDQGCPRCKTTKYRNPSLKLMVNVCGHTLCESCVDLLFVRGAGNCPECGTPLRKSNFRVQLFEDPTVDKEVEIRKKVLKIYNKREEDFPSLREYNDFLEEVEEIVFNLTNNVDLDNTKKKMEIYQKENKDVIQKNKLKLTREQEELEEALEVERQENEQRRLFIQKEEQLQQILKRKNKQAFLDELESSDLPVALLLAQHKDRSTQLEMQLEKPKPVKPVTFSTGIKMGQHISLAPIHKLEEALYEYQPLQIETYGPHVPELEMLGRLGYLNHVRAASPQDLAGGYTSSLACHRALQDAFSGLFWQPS

`NS(=O)(=O)Cc1cccc(Nc2ncnc(N3CCC[C@@H]3c3ccccc3)n2)c1` [Compound B34, (R)-3-[(4-(2-Phenylpyrrolidin-1-yl)-1,3,5-triazin-2-yl)amino]-benzenemethanesulfonamide]: the IC50 in the assay on Hela cells is greater than 10000 nM; with MDAMB468 cells, 1000 to 10000 nM. The Kd is less than 100 nM on CDK9/Cyclin T1, 1000 to 10000 nM at CDK2/CyclinA, less than 100 nM at CDK9/Cyclin K and greater than 10000 nM at CDK7/CyclinH/MAT1.
Turning to `NS(=O)(=O)Cc1cccc(Nc2ncnc(N3Cc4ccncc4C3)n2)c1` [Compound B49, 3-[(4-(1H-Pyrrolo[3,4-c]pyridin-2(3H)-yl)-1,3,5-triazin-2-yl)amino]-benzenemethanesulfonamide], the half-maximal inhibitory concentration (IC50) with Hela cells and in the assay with MDAMB468 cells was greater than 10000 nM in each case. The Kd on CDK9/Cyclin T1 was less than 100 nM; at CDK2/CyclinA, 100 to 1000 nM; on CDK9/Cyclin K, less than 100 nM; on CDK7/CyclinH/MAT1, greater than 10000 nM.
